Laboratory results: publication PMC9260081, “Design, Synthesis, and Evaluation of Anticonvulsant Activities of New Triazolopyrimidine Derivatives” (Frontiers in Chemistry, 2022)
Like-named read-outs stand apart in the source and are kept apart here.

How the values were obtained:
[1] = tested on: MES-induced seizures; assay: Maximal electroshock seizure (MES) test; assay type: in vivo, mice; details: Mus musculus, ip, mice, dosages 30, 100, 300 mg/kg, read-out: MES screening, minimum dose whereby bioactivity was demonstrated in half or more of the mice
Protocol: (§1) Male Kunming mice with weights from 18 to 22 g were used in all the pharmacological experiments. The mice were housed in the standard cages with 10 each, where a controlled temperature (25°C ± 2°C) with a 12 h light/dark cycle was maintained. All animals had free access to food and water. All experiments and procedures involving animals were carried out according to the Guide for the Care and Use of Laboratory Animals (National Academies Press, Washington, D.C., United States). Approval from the local medical ethical committee was obtained before the experiment.
In the MES test, mice were subjected to ear stimulation using a 0.2 s 60-Hz 50-mA alternating current to elicit seizures. Tonic hind limb extension was considered as the seizure occurring, and the vanishing of tonic hind limb extension indicates the protection against the MES-induced seizures. Mice were injected intraperitoneally with test compounds at doses of 300, 100, and 30 mg/kg to evaluate their general anticonvulsant activity. Half and 4 h intervals were chosen to test the anti-MES activity. […] A series of doses of the tested compounds were injected into the mice with 10 in one group.

[2] = tested on: PTZ-induced seizures; assay: Subcutaneous pentylenetetrazole (PTZ) test; assay type: in vivo, mice; details: Mus musculus, ip, mice, dosages 30, 100, 300 mg/kg, read-out: PTZ screening, minimum dose whereby bioactivity was demonstrated in half or more of the mice
Protocol: as §1
In the PTZ test, mice were subcutaneously administered with PTZ at the dose of 85 mg/kg. At this dose, mice can be elicited a threshold seizure characterized by an episode of clonic spasms and tonic spasms. After being treated with test compounds at doses of 300, 100, and 30 mg/kg, the mice were considered protected if a single episode of clonic spasms of more than 5 s duration was not obtained. The quantitative anticonvulsant activity (ED50) in the PTZ model was determined and calculated with the same method described in the MES test.

[3] = tested on: ability to maintain equilibrium on rotating rod; assay: Neurotoxicity screening (rotarod test); assay type: in vivo; details: i.p., dosages 30, 100, 300 mg/kg
Protocol: as §1
The rotarod test was used to evaluate the neurotoxicity of the synthesized compounds. Before the formal experiments, mice were trained to climb on a rotating rod of diameter 3.2 cm with the rotation speed of 10 rpm. Test compounds in the three doses were intraperitoneally injected into the trained mice. […] The rough neurotoxic dose was obtained in which mice cannot maintain equilibrium on the rod for at least 1 min. The quantitative neurotoxic dose (TD50) of the test compounds was measured and calculated with the same method described in the MES test.

| SMILES | minimal effective dose ([1]; 0.5 h after injection) [mg/kg] | minimal effective dose ([1]; 4 h after injection) [mg/kg] | minimal effective dose ([2]; 0.5 h after injection) [mg/kg] | minimal effective dose ([2]; 4 h after injection) [mg/kg] | NT screening (rotarod), minimum neurotoxic dose in half or more of the mice ([3]; 0.5 h after injection) | NT screening (rotarod), minimum neurotoxic dose in half or more of the mice ([3]; 4 h after injection) | melting point [°C] |
| --- | --- | --- | --- | --- | --- | --- | --- |
| Clc1ccccc1-c1ccnc2ncnn12 [Compound 3c, 7-(2-Chlorophenyl)-[1,2,4]triazolo[1,5-a]pyrimidine] | 100 | > 300 | 100 | > 300 | — (A dash indicates the absence of anticonvulsant activity and neurotoxicity at the maximum dose administered (300 mg/kg)) | — (A dash indicates the absence of anticonvulsant activity and neurotoxicity at the maximum dose administered (300 mg/kg)) | 148 to 149 |
| c1ccc(-c2ccnc3ncnn23)cc1 [Compound 3a, 7-Phenyl-[1,2,4]triazolo[1,5-a]pyrimidine] | 300 | > 300 | 100 | > 300 | — (A dash indicates the absence of anticonvulsant activity and neurotoxicity at the maximum dose administered (300 mg/kg)) | — (A dash indicates the absence of anticonvulsant activity and neurotoxicity at the maximum dose administered (300 mg/kg)) | 142 to 143 |
